Measurements: ChEMBL document CHEMBL5620371, “Transient receptor potential ankyrin 1 (TRPA1) modulators: Recent update and future perspective” (Eur J Med Chem, 2023)
One block for each compound: values may come before it.

How the values were obtained:
[1] = biological target: T1, Transient receptor potential cation channel subfamily A member 1 (Homo sapiens, UniProt O75762); test: Antagonist activity at human recombinant TRPA1 transfected in HEK293T cells assessed as increase in Ca2+ influx by FLIPR calcium assay; assay type: cell-based
T1 sequence (O75762 whole entry): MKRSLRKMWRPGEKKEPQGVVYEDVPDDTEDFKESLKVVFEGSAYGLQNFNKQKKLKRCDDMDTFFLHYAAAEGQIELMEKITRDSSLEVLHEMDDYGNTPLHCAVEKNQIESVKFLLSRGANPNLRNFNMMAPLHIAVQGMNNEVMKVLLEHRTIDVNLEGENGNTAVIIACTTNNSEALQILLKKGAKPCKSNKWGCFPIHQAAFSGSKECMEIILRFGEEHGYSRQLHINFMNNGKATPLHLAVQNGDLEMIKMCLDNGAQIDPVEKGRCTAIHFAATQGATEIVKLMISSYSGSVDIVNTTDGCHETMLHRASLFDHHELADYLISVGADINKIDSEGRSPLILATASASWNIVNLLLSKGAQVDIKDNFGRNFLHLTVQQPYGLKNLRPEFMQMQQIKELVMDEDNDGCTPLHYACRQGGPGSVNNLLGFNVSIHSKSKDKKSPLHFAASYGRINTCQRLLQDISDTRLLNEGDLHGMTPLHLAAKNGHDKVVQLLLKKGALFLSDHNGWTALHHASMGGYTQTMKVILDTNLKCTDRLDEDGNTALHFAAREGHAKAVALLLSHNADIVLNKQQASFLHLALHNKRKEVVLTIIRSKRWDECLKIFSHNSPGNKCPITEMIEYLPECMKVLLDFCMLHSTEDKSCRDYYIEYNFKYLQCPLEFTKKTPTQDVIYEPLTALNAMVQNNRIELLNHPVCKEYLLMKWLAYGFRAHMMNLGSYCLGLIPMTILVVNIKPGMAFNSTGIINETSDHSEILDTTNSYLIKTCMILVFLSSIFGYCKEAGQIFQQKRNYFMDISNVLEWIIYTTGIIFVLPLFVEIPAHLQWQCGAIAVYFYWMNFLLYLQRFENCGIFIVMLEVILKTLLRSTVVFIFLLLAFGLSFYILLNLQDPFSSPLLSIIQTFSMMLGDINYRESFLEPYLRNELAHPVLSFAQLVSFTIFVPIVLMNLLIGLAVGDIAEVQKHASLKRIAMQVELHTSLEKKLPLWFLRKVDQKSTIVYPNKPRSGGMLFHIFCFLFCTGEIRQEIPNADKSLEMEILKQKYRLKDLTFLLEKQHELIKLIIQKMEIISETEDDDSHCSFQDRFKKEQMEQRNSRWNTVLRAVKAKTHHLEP

[2] = biological target: T2, Transient receptor potential cation channel subfamily V member 1 (Homo sapiens, UniProt Q8NER1); test: Inhibition of TRPV1 (unknown origin)
T2 sequence (Q8NER1 whole entry): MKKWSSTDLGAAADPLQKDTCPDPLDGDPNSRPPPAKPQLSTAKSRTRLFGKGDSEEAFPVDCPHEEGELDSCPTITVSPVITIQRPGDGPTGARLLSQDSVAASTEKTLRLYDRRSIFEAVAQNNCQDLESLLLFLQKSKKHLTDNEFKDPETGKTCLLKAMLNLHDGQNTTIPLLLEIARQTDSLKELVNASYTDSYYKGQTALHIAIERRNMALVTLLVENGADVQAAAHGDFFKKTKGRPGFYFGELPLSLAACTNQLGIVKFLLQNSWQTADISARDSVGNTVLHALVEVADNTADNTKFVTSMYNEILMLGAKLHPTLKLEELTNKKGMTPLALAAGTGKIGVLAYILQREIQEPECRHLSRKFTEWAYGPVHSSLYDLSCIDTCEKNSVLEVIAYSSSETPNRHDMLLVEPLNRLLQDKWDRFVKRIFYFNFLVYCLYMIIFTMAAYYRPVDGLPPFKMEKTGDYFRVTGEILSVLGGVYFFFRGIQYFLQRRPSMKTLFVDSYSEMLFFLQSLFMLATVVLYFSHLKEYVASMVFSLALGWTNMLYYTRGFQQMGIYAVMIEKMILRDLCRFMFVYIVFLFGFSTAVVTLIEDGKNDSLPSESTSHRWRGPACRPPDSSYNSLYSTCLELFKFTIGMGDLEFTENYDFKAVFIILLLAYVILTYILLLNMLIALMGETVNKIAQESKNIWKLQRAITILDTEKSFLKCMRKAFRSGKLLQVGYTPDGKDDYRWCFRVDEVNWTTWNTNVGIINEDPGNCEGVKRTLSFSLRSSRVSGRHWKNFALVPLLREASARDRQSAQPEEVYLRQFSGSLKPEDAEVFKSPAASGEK

[3] = biological target: T1, Transient receptor potential cation channel subfamily A member 1; test: Inhibition of TRPA1 (unknown origin)
[4] = biological target: T1, Transient receptor potential cation channel subfamily A member 1; test: Agonist activity at TRPA1 (unknown origin)
[5] = biological target: T2, Transient receptor potential cation channel subfamily V member 1; test: Agonist activity at human recombinant TRPV1 over expressed in HEK293 cells assessed as increase in intracellular calcium level by measuring efficacy by Fluo4-AM based assay; assay type: cell-based
[6] = biological target: T3, Transient receptor potential cation channel subfamily A member 1 (Mus musculus, UniProt Q8BLA8); test: Antagonist activity at mouse TRPA1 expressed in HEK293F cells as increase in Ca2+ influx by FLIPR calcium assay; assay type: cell-based
T3 sequence (Q8BLA8 whole entry): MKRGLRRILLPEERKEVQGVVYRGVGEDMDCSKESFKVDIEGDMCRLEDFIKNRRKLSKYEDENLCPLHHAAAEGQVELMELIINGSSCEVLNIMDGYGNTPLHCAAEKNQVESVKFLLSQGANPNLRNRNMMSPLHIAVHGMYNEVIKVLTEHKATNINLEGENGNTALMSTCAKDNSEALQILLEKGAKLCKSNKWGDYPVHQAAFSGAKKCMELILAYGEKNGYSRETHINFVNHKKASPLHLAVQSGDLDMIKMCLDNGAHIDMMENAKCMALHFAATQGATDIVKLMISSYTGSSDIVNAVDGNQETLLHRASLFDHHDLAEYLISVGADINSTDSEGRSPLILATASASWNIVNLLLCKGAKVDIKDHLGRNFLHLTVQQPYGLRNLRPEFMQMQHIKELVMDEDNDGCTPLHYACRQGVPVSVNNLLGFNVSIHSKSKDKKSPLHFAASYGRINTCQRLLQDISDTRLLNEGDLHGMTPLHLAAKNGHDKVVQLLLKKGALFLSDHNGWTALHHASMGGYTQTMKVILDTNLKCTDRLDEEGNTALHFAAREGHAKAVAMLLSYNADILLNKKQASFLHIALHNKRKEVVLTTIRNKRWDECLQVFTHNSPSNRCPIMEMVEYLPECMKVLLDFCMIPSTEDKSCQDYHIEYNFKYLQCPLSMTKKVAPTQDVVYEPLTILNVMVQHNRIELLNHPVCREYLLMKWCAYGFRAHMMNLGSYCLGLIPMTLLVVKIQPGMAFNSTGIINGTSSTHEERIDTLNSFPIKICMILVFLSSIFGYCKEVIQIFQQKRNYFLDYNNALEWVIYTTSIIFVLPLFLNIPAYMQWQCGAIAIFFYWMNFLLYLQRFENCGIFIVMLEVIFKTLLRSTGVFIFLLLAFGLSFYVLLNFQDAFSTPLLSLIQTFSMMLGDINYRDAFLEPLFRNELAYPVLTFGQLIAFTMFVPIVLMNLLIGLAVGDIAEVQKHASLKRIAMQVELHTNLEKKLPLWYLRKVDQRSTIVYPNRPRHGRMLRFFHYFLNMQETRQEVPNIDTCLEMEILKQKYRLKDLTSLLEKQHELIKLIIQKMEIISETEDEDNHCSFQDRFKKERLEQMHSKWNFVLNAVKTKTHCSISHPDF

[7] = biological target: T4, Transient receptor potential cation channel subfamily A member 1 (Rattus norvegicus, UniProt Q6RI86); test: Agonist activity at rat TRPA1 transfected in HEK293F cells assessed as increase in Ca2+ influx by FLIPR calcium assay; assay type: cell-based
T4 sequence (Q6RI86 whole entry): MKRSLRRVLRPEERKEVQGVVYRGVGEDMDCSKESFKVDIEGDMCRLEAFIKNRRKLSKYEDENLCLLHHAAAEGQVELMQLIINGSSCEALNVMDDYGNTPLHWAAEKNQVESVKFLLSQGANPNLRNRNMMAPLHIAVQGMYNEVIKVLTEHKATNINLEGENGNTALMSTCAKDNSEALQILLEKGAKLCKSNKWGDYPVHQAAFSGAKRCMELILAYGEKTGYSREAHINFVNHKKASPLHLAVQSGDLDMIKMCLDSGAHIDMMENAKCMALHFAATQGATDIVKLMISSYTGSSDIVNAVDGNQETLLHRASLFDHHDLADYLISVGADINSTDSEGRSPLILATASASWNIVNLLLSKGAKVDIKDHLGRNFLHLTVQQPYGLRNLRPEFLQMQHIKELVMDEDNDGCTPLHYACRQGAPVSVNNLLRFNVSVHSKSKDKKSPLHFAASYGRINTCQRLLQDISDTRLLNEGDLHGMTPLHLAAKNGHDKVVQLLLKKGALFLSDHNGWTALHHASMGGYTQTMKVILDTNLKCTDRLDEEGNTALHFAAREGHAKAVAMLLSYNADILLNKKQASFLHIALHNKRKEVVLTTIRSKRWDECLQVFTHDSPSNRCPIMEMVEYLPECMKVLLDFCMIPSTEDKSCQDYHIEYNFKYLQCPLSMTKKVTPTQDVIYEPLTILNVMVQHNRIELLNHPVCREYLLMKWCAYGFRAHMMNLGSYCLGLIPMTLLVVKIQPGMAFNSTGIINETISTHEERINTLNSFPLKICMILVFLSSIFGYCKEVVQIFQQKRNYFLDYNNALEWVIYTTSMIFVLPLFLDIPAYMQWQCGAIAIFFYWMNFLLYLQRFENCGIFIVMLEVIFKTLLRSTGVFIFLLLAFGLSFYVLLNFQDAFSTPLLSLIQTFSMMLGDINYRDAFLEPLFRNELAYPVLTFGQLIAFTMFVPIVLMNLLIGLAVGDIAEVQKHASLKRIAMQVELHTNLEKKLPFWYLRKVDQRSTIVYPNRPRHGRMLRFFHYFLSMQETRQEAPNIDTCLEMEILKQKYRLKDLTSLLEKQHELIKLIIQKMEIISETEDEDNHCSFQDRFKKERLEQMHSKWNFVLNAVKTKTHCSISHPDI

[8] = biological target: T4, Transient receptor potential cation channel subfamily A member 1; test: Agonist activity at rat recombinant TRPA1 expressed in HEK293 cells assessed as increase in intracellular calcium accumulation by Fluo4-AM based assay; assay type: cell-based
[9] = biological target: T3, Transient receptor potential cation channel subfamily A member 1; test: Agonist activity at full length mouse TRPA1 transfected in HEK293F cells assessed as increase in Ca2+ influx by FLIPR calcium assay; assay type: cell-based
[10] = biological target: T1, Transient receptor potential cation channel subfamily A member 1; test: Antagonist activity at TRPA1 (unknown origin) expressed in HEK293T cells assessed as inhibition of agonist induced channel current by whole-cell patch clamp analysis; assay type: cell-based

Structure (SMILES): O=NN1[C@@H]2c3ccccc3[C@H]1[C@@H](C(F)(F)F)C2C(F)(F)F (stereo partly specified)
- EC50 [1]: 5.63 µM

- IC50 [2]: > 50 µM
Structure (SMILES): CC(C)c1cc(CCC(=O)CC(O)Cc2ccccc2)cc(C(C)C)c1O (stereo unspecified)

- IC50 [2]: > 50 µM
- IC50 [3]: 4.5 µM
Structure (SMILES): O=C(CCc1ccccc1)CC(O)Cc1ccccc1 (stereo unspecified)

- EC50 [4]: 0.00065 µM
Structure (SMILES): COCCCN(C(=O)CCl)c1nc(-c2ccc(OC)cc2)cs1

- EC50 [5]: 3.7 µM
Structure (SMILES): C[C@@H](N)[C@@H](O)C/C=C\C/C=C\C/C=C\C/C=C\C/C=C\C/C=C\CCCCCC[C@H](O)[C@@H](C)N [LEUCETTAMOL A]

- IC50 [2]: > 10 µM
Structure (SMILES): O=C(CCc1ccccc1)CC(O)CCCCCCc1ccccc1 (stereo unspecified)

- EC50 [6]: 44 µM
Structure (SMILES): CCC/C=C1\OC(=O)C2=C1CCC=C2 [LIGUSTILIDE]

- IC50 [7]: 0.007 µM
Structure (SMILES): Cn1cnc2ncn(Cc3nc([C@@H]4CO[C@@H](c5ccc(F)cc5)C4)no3)c(=O)c21

- IC50 [8]: 0.51 µM
Structure (SMILES): CC(C)CN1C(=O)/C(=C/C(=O)O)c2cccc(F)c21

Structure (SMILES): O=C(O)CCCCCCCCCO
- EC50 [9]: 510 µM

- EC50 [9]: 422 µM
Structure (SMILES): O=C(O)/C=C/CCCCCCCO

Structure (SMILES): CCC/C=C1\OC(=O)c2ccccc21 [Z-butylidenephthalide]
- EC50 [9]: 539 µM

- IC50 [3]: 16.2 µM
Structure (SMILES): O=C1C[C@@H](c2ccc(O[C@@H]3O[C@H](CO)[C@@H](O)[C@H](O)[C@H]3O)cc2)Oc2cc(O)ccc21 [LIQUIRITIN]

- EC50 [10]: 0.09 µM
Structure (SMILES): C[n+]1cc2c3c(ccc2c2ccc4cc5c(cc4c21)OCO5)OCO3

- IC50 [2]: > 10 µM
Structure (SMILES): O=C(CCc1ccc2c(c1)OCO2)CC(O)CCCCCCc1ccccc1 (stereo unspecified)
